Measurements: patent EP0565593B1, “REDUCING PESTICIDAL INTERACTIONS IN CROPS” (priority 1990, dated 1992)
Where “and” joins values, the source holds several entries; their conditions need not be identical. Equal entries are not always repeated. Where two headings read alike, the source gives them in different places.

Legend:
[1] = system: cotton (COTT); assay: Multi-crop greenhouse test, COUNTER 15G and safener PPI, herbicide POE (Examples 62-64; Tables 61-63); format: in vivo; set-up: dose or concentration left out as unconfirmed; conditions: Gossypium hirsutum, Table 63, Biocide No. 1 8.96 Kg/Ha, antidote 4.48 Kg/Ha PPI where in label
Procedure: (§1) Tests according to this invention in various crops indicate widespread application of the invention. In Examples 62-66 below are described tests with a variety of herbicides contacted with COUNTER® 15G in the presence and absence of MON-7400 (Antidote No. 12); MON-13900 (No. 1); MON-4660 (No. 16) and flurazole (No. 16). Those tests were conducted according to Procedures IV or V described above and illustrated further in other foregoing examples. Plants used in all tests were, for crops (as abbreviated in parentheses); cotton (COTT); soybean (SOBE); CORN, grain sorghum (GRSO); wheat (WHEA) and RICE, and the weeds giant foxtail (GIFT) and velvetleaf (VELE). The data in the tables below represent averages of two replications.
(§2) In this test the crops and weeds were planted 1.3 cm deep in 13.7 cm X 27.7 cm pans containing Dupo silt loam soil. The test safeners were applied in acetone solution and COUNTER 15G as dry granules to soil cover layers and incorporated by shaking in a bag. Treated cover layers were placed on seeded pans which were transferred to greenhouse benches and subirrigated. Herbicide was applied POE six (6) days after PPI initiation and observations of plant injury made ten (10) days later; results are shown in Table 61. The herbicide used in this example was BEACON (No. 8).
(§3) The test procedure described in Example 62 was repeated using ACCENT® (Herbicide No. 7) as the herbicide; the biocide and safeners were the same.

[2] = system: Corn; assay: Multi-crop greenhouse test, herbicide POE (Examples 62-64; Tables 61-63); format: in vivo; set-up: inhibition: dose or concentration left out as unconfirmed; conditions: Zea mays, Table 63, Biocide No. 1 8.96 Kg/Ha, antidote 4.48 Kg/Ha PPI where in label
Procedure: as §1, §2, §3

[3] = system: grain sorghum (GRSO); assay: as above; format: in vivo; set-up: dose or concentration left out as unconfirmed; conditions: Biocide No. 1 8.96 Kg/Ha, antidote 4.48 Kg/Ha PPI where in label
Procedure: as §1, §2, §3

[4] = system: Giant foxtail (GIFT); assay: as above; format: in vivo; set-up: dose or concentration left out as unconfirmed; conditions: Setaria faberi, Table 63, Biocide No. 1 8.96 Kg/Ha, antidote 4.48 Kg/Ha PPI where in label
Procedure: as §1, §2, §3

[5] = system: Velvetleaf (VELE); assay: as above; format: in vivo; set-up: dose or concentration left out as unconfirmed; conditions: Abutilon theophrasti, Table 63, Biocide No. 1 8.96 Kg/Ha, antidote 4.48 Kg/Ha PPI where in label
Procedure: as §1, §2, §3

[6] = system: RICE; assay: as above; format: in vivo; set-up: dose or concentration left out as unconfirmed; conditions: Oryza sativa, Table 63, Biocide No. 1 8.96 Kg/Ha, antidote 4.48 Kg/Ha PPI where in label
Procedure: as §1, §2, §3

[7] = system: wheat (WHEA); assay: as above; format: in vivo; set-up: dose or concentration left out as unconfirmed; conditions: Triticum aestivum, Table 63, Biocide No. 1 8.96 Kg/Ha, antidote 4.48 Kg/Ha PPI where in label
Procedure: as §1, §2, §3

[8] = system: soybean (SOBE); assay: as above; format: in vivo; set-up: dose or concentration left out as unconfirmed; conditions: Glycine max, Table 63, Biocide No. 1 8.96 Kg/Ha, antidote 4.48 Kg/Ha PPI where in label
Procedure: as §1, §2, §3

[9] = system: Velvetleaf (VELE); format: in vivo, Abutilon theophrasti
[10] = system: Shattercane (SHCA); format: in vivo
[11] = system: Corn; assay: Field trials, PPI, PRE and POE herbicide applications with terbufos (Example 7); format: in vivo; conditions: mean of five locations, soil-applied insecticide prior to planting
Excerpt: This example summarizes the results of one series of field trials from a plurality of locations and soil types wherein test chemicals were applied in various modes including pre-plant incorporated (PPI), post emergence (POE) and preemergence (PRE) with and without a safener (antidote). Test Chemicals were Herbicide Nos 1, 2, 3 and 7-9; Insecticide No. 1 and Antidote No. 1.
In these trials Insecticide No. 1 (terbufos) was T-banded or furrow applied at labeled rates prior to planting corn. PPI herbicide treatments were applied prior to insecticide applications; PRE treatments were applied after the insecticide application either prior to or after seeding the corn. POE herbicide applications were made at 2 corn-growth stages, i.e., early post (EP) at the 2-3 leaf stage and late post (LP) at the 4-7 leaf stage. Plots were small plot with 3 replications in a randomized complete block design. In the PRE and PPI herbicide treatments, Antidote No. 1 was applied as a tankmix in both treatments. In the POE herbicide treatments, that antidote was applied as a tank mix with the herbicide at the EP and LP stages.

[12] = system: Corn
[13] = Herb. No. 18 (PURSUIT) 0.009 Kg/Ha POE
[14] = Herb. No. 18 (PURSUIT) 0.035 Kg/Ha POE
[15] = Herb. No. 18 (PURSUIT) 0.14 Kg/Ha POE
[16] = Herbicide No. 7 0.28 Kg/Ha POE alone, 13 days after planting
[17] = Herbicide No. 7 0.28 POE + Biocide No. 1 8.96 Kg/Ha PPI, 13 days after planting
[18] = Herbicide No. 7 alone, POE 5 DAP, observed 13 DAP
[19] = Table 14: no antidote, Herbicide No. 7 0.84 Kg/Ha POE and/or Biocide No. 2 8.96 Kg/Ha PPI, per label, 13 days after planting
[20] = Table 50, Herbicide No. 7 0.56 Kg/Ha POE, where applied Biocide No. 8 8.96 kg/Ha and antidote 4.48 Kg/Ha PPI, observed 9 days after POE
[21] = no antidote, […], 13 days after planting

With `CCc1cnc(C2=NC(C)(C(C)C)C(=O)N2)c(C(=O)O)c1` (stereo not shown) [Herb. No. 18] the inhibition [1, 13] was 40%, the inhibition [1, 14] was 45% and the inhibition [1, 15] was 50%. The inhibition [2, 13] was 5%, the inhibition [2, 14] was 25% and the inhibition [2, 15] was 40%. The inhibition ([3]; Table 63, Herb. No. 18 (PURSUIT) 0.009 Kg/Ha POE) was 60%, the inhibition ([3]; Table 63, Herb. No. 18 (PURSUIT) 0.035 Kg/Ha POE) was 65% and the inhibition ([3]; Table 63, Herb. No. 18 (PURSUIT) 0.14 Kg/Ha POE) was 75%. It also gave an inhibition [4, 13] of 60%, an inhibition [4, 14] of 80% and an inhibition [4, 15] of 80%. The inhibition [5, 13] was 75%, the inhibition [5, 14] was 95% and the inhibition [5, 15] was 100%. The inhibition [6, 13] was 20%, the inhibition [6, 14] was 45% and the inhibition [6, 15] was 60%. The inhibition [7, 13] was 0%, the inhibition [7, 14] was 20% and the inhibition [7, 15] was 35%. For the same compound, the inhibition [8, 13] was 5%, the inhibition [8, 14] was 10% and the inhibition [8, 15] was 10%.
For `COc1cc(OC)nc(NC(=O)NS(=O)(=O)c2ncccc2C(=O)N(C)C)n1` [Herbicide No. 7, reference compound], the “% Inhibition VELE” value [9, 16] was 60%, the “% Inhibition VELE” value [9, 17] was 65% and the “% Inhibition VELE” value [9, 18] was 70%. For the same compound, the “% Inhibition VELE” value [9, 19] was 65%, the “% Inhibition VELE” value [9, 20] was 80% and the “% Inhibition VELE” value ([9]; in vivo) was 60% and 75%. For the same compound, the “% Inhibition VELE” value [9, 21] was 60%, the “% Inhibition SHCA” value [10, 16] was 70% and the “% Inhibition SHCA” value [10, 17] was 75%. For the same compound, the “% Inhibition SHCA” value [10, 18] was 75%, the “% Inhibition SHCA” value [10, 19] was 75% and the “% Inhibition SHCA” value [10, 20] was 75%. For the same compound, the “% Inhibition SHCA” value ([10]; in vivo) was 75%, the “% Inhibition SHCA” value [10, 21] was 75% and the “interaction with Insecticide No. 1 after POE herbicide” value [11] was “Significant increased growth reduction”. For the same compound, the “safety to corn” value ([12]; ACCENT alone, no insecticide, 0.28 to 0.84 kg/ha) was “completely safe”, the “% Inhibition Corn” value [12, 16] was 0% and the “% Inhibition Corn” value [12, 17] was 60%. The “% Inhibition Corn” value [12, 18] was 0%, the “% Inhibition Corn” value [12, 19] was 0% and the “% Inhibition Corn” value [12, 20] was 10%. For the same compound, the “% Inhibition Corn” value [12, 21] was 0%.
